The text below walks through data of patent publication US20230340012A1, “NATURAL AND SYNTHETIC COMPOUNDS FOR TREATING CANCER AND OTHER DISEASES” (PACIFIC ARROW LIMITED, priority 2009, published 2023).

In the series the test system is cancer cells. Briefly: MTT cytotoxic assay of esterification products (Cytotoxicity activity). The following applies: compounds isolated with HPLC. It is filed as cell-based, human. In short, it runs like this: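 Cytotoxicity was read by MTT (Carmichael method, modified), with cells seeded 24 h ahead of treatment. Sixteen human cancer lines spanning bone, lung, bladder, ovary, colon, pancreas, prostate, skin, mouth, kidney, breast, liver, brain, leukemia and cervix were used. Test samples were acyl chloride esterification products of triterpenes, as mixtures or HPLC-purified compounds.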
(Tetrazolium assays rely on reduction of a dye to a coloured formazan, in cell work by metabolically active cells.)

Where [1] appears, read: E4A esterified with Acetyl chloride (Acy = Acetyl).
Setting [2] is: E4A esterified with Crotonoyl chloride (Cro = Crotonoyl).

In the case of `CC(=O)OCC1(C)C(OC(C)=O)CCC2(C)C1CCC1(C)C2CC=C2C3CC(C)(C)C(O)C(OC(C)=O)C3(COC(C)=O)C(O)CC21C` (centres unmarked) [Compound H14], the Cytotoxicity activity result under setting [1] is “weak”.

Regarding `CC(=O)OCC1(C)C(OC(C)=O)CCC2(C)C1CCC1(C)C2CC=C2C3CC(C)(C)C(OC(C)=O)C(OC(C)=O)C3(COC(C)=O)C(O)CC21C` (centres unmarked) [Compound H15], the Cytotoxicity activity result under setting [1] is listed as “weak”.

For the compound `CC(=O)OCC1(C)C(O)CCC2(C)C1CCC1(C)C2CC=C2C3CC(C)(C)C(OC(C)=O)C(OC(C)=O)C3(COC(C)=O)C(OC(C)=O)CC21C` (centres unmarked) [Compound H16], the Cytotoxicity activity result under setting [1] is recorded as “weak”. In the case of `CC(=O)OCC1(C)C(OC(C)=O)CCC2(C)C1CCC1(C)C2CC=C2C3CC(C)(C)C(OC(C)=O)C(O)C3(COC(C)=O)C(OC(C)=O)CC21C` (centres unmarked) [Compound H17], under setting [1], the Cytotoxicity activity result is “weak”. With `CC(=O)OCC1(C)C(OC(C)=O)CCC2(C)C1CCC1(C)C2CC=C2C3CC(C)(C)C(O)C(OC(C)=O)C3(COC(C)=O)C(OC(C)=O)CC21C` (centres unmarked) [Compound H18], the Cytotoxicity activity entry under setting [1] is given as “weak”.

Regarding `CC(=O)OCC1(C)C(OC(C)=O)CCC2(C)C1CCC1(C)C2CC=C2C3CC(C)(C)C(OC(C)=O)C(OC(C)=O)C3(COC(C)=O)C(OC(C)=O)CC21C` (centres unmarked) [Compound H19], the Cytotoxicity activity entry under setting [1] is on record as “none”. Still for that read-out and setting: under `CC(=O)OCC12C(O)CC3(C)C(=CCC4C5(C)CCC(O)C(C)(CO)C5CCC43C)C1CC(C)(C)C(OC(C)=O)C2OC(C)=O` (centres unmarked) [Compound H20] stands “moderate”; under `CC(=O)OCC1(C)C(O)CCC2(C)C1CCC1(C)C2CC=C2C3CC(C)(C)C(OC(C)=O)C(OC(C)=O)C3(CO)C(O)CC21C` (centres unmarked) [Compound H21], “moderate”. Still for that read-out and setting: in the case of `CC(=O)OC1C(OC(C)=O)C2(CO)C(OC(C)=O)CC3(C)C(=CCC4C5(C)CCC(O)C(C)(CO)C5CCC43C)C2CC1(C)C` (centres unmarked) [Compound H22] it was “moderate”. The same measure, in the same setting: under `CC(=O)OC1C(OC(C)=O)C2(CO)C(O)CC3(C)C(=CCC4C5(C)CCC(OC(C)=O)C(C)(CO)C5CCC43C)C2CC1(C)C` (centres unmarked) [Compound H23] stands “moderate”; under `CC(=O)OC1C(OC(C)=O)C2(CO)C(O)CC3(C)C(=CCC4C5(C)CCC(O)C(C)(CO)C5CCC43C)C2CC1(C)C` (centres unmarked) [Compound H24], “moderate”; under `CC(=O)OCC12C(O)CC3(C)C(=CCC4C5(C)CCC(O)C(C)(CO)C5CCC43C)C1CC(C)(C)C(OC(C)=O)C2O` (centres unmarked) [Compound H25], “moderate”. In the case of `CC(=O)OCC12C(O)CC3(C)C(=CCC4C5(C)CCC(O)C(C)(CO)C5CCC43C)C1CC(C)(C)C(O)C2OC(C)=O` (centres unmarked) [Compound H26], the Cytotoxicity activity entry under setting [1] is “moderate”. The same measure, in the same setting: under `CC(=O)OCC12C(O)CC3(C)C(=CCC4C5(C)CCC(OC(C)=O)C(C)(CO)C5CCC43C)C1CC(C)(C)C(O)C2O` (centres unmarked) [Compound H27] stands “moderate”. On the same count and under the same terms, in the case of `CC(=O)OCC12C(OC(C)=O)CC3(C)C(=CCC4C5(C)CCC(O)C(C)(CO)C5CCC43C)C1CC(C)(C)C(O)C2O` (centres unmarked) [Compound H28] it was “moderate”; in that of `CC(=O)OCC1(C)C(O)CCC2(C)C1CCC1(C)C2CC=C2C3CC(C)(C)C(OC(C)=O)C(O)C3(CO)C(O)CC21C` (centres unmarked) [Compound H29], “moderate”. On the same count and under the same terms, in the case of `CC(=O)OCC1(C)C(O)CCC2(C)C1CCC1(C)C2CC=C2C3CC(C)(C)C(O)C(OC(C)=O)C3(CO)C(O)CC21C` (centres unmarked) [Compound H30] it was “moderate”. Regarding `CC(=O)OCC1(C)C(OC(C)=O)CCC2(C)C1CCC1(C)C2CC=C2C3CC(C)(C)C(O)C(O)C3(CO)C(O)CC21C` (centres unmarked) [Compound H31], the Cytotoxicity activity entry under setting [1] is on record as “moderate”.

On to `CC(=O)OCC1(C)C(O)CCC2(C)C1CCC1(C)C2CC=C2C3CC(C)(C)C(O)C(O)C3(CO)C(OC(C)=O)CC21C` (centres unmarked) [Compound H32], for which the Cytotoxicity activity entry under setting [1] is given as “moderate”.

As for `CC=CC(=O)OCC1(C)C(O)CCC2(C)C1CCC1(C)C2CC=C2C3CC(C)(C)C(O)C(O)C3(CO)C(O)CC21C` (centres unmarked) [Compound I1], the Cytotoxicity activity result under setting [2] is given as “moderate”.

With `CC=CC(=O)OCC12C(O)CC3(C)C(=CCC4C5(C)CCC(O)C(C)(CO)C5CCC43C)C1CC(C)(C)C(O)C2O` (centres unmarked) [Compound I2], under setting [2], the Cytotoxicity activity result is recorded as “moderate”. With `CC=CC(=O)OCC1(C)C(O)CCC2(C)C1CCC1(C)C2CC=C2C3CC(C)(C)C(O)C(O)C3(COC(=O)C=CC)C(O)CC21C` (centres unmarked) [Compound I3], the Cytotoxicity activity result under setting [2] is recorded as “strong”.

With `CC=CC(=O)OCC1(C)C(O)CCC2(C)C1CCC1(C)C2CC=C2C3CC(C)(C)C(OC(=O)C=CC)C(O)C3(COC(=O)C=CC)C(O)CC21C` (centres unmarked) [Compound I4], the Cytotoxicity activity result under setting [2] was “moderate”. As for `CC=CC(=O)OCC1(C)C(O)CCC2(C)C1CCC1(C)C2CC=C2C3CC(C)(C)C(O)C(OC(=O)C=CC)C3(COC(=O)C=CC)C(O)CC21C` (centres unmarked) [Compound I5], the Cytotoxicity activity result under setting [2] is recorded as “moderate”.

Turning to `CC=CC(=O)OCC1(C)C(OC(=O)C=CC)CCC2(C)C1CCC1(C)C2CC=C2C3CC(C)(C)C(O)C(O)C3(COC(=O)C=CC)C(O)CC21C` (centres unmarked) [Compound I6], the Cytotoxicity activity result under setting [2] is on record as “moderate”.

Take `CC=CC(=O)OCC1(C)C(O)CCC2(C)C1CCC1(C)C2CC=C2C3CC(C)(C)C(O)C(O)C3(COC(=O)C=CC)C(OC(=O)C=CC)CC21C` (centres unmarked) [Compound I7]: the Cytotoxicity activity result under setting [2] is listed as “moderate”.

On to `CC=CC(=O)OCC1(C)C(O)CCC2(C)C1CCC1(C)C2CC=C2C3CC(C)(C)C(OC(=O)C=CC)C(OC(=O)C=CC)C3(COC(=O)C=CC)C(O)CC21C` (centres unmarked) [Compound I8], for which the Cytotoxicity activity result under setting [2] was “weak”. Same read-out and setting: in the case of `CC=CC(=O)OCC1(C)C(OC(=O)C=CC)CCC2(C)C1CCC1(C)C2CC=C2C3CC(C)(C)C(O)C(OC(=O)C=CC)C3(COC(=O)C=CC)C(O)CC21C` (centres unmarked) [Compound I9] it was “weak”; in that of `CC=CC(=O)OCC1(C)C(OC(=O)C=CC)CCC2(C)C1CCC1(C)C2CC=C2C3CC(C)(C)C(O)C(O)C3(COC(=O)C=CC)C(OC(=O)C=CC)CC21C` (centres unmarked) [Compound I10], “weak”. `CC=CC(=O)OCC1(C)C(OC(=O)C=CC)CCC2(C)C1CCC1(C)C2CC=C2C3CC(C)(C)C(OC(=O)C=CC)C(O)C3(COC(=O)C=CC)C(O)CC21C` (centres unmarked) [Compound I11]: the Cytotoxicity activity result under setting [2] is on record as “weak”. `CC=CC(=O)OCC1(C)C(O)CCC2(C)C1CCC1(C)C2CC=C2C3CC(C)(C)C(O)C(OC(=O)C=CC)C3(COC(=O)C=CC)C(OC(=O)C=CC)CC21C` (centres unmarked) [Compound I12]: the Cytotoxicity activity entry under setting [2] is listed as “weak”. As for `CC=CC(=O)OCC1(C)C(O)CCC2(C)C1CCC1(C)C2CC=C2C3CC(C)(C)C(OC(=O)C=CC)C(O)C3(COC(=O)C=CC)C(OC(=O)C=CC)CC21C` (centres unmarked) [Compound I13], the Cytotoxicity activity result under setting [2] is listed as “weak”. On the same count and under the same terms, under `CC=CC(=O)OCC1(C)C(OC(=O)C=CC)CCC2(C)C1CCC1(C)C2CC=C2C3CC(C)(C)C(O)C(OC(=O)C=CC)C3(COC(=O)C=CC)C(O)CC21C` (centres unmarked) [Compound I14] stands “weak”.

`CC=CC(=O)OCC1(C)C(OC(=O)C=CC)CCC2(C)C1CCC1(C)C2CC=C2C3CC(C)(C)C(OC(=O)C=CC)C(OC(=O)C=CC)C3(COC(=O)C=CC)C(O)CC21C` (centres unmarked) [Compound I15]: the Cytotoxicity activity result under setting [2] is recorded as “weak”. Still for that read-out and setting: under `CC=CC(=O)OCC1(C)C(O)CCC2(C)C1CCC1(C)C2CC=C2C3CC(C)(C)C(OC(=O)C=CC)C(OC(=O)C=CC)C3(COC(=O)C=CC)C(OC(=O)C=CC)CC21C` (centres unmarked) [Compound I16] stands “weak”. `CC=CC(=O)OCC1(C)C(OC(=O)C=CC)CCC2(C)C1CCC1(C)C2CC=C2C3CC(C)(C)C(OC(=O)C=CC)C(O)C3(COC(=O)C=CC)C(OC(=O)C=CC)CC21C` (centres unmarked) [Compound I17]: under setting [2], the Cytotoxicity activity result is on record as “weak”. For the compound `CC=CC(=O)OCC1(C)C(OC(=O)C=CC)CCC2(C)C1CCC1(C)C2CC=C2C3CC(C)(C)C(O)C(OC(=O)C=CC)C3(COC(=O)C=CC)C(OC(=O)C=CC)CC21C` (centres unmarked) [Compound I18], the Cytotoxicity activity entry under setting [2] is reported as “weak”. For the compound `CC=CC(=O)OCC1(C)C(OC(=O)C=CC)CCC2(C)C1CCC1(C)C2CC=C2C3CC(C)(C)C(OC(=O)C=CC)C(OC(=O)C=CC)C3(COC(=O)C=CC)C(OC(=O)C=CC)CC21C` (centres unmarked) [Compound I19], the Cytotoxicity activity result under setting [2] is “none”.

In the case of `CC=CC(=O)OCC12C(O)CC3(C)C(=CCC4C5(C)CCC(O)C(C)(CO)C5CCC43C)C1CC(C)(C)C(OC(=O)C=CC)C2OC(=O)C=CC` (centres unmarked) [Compound I20], the Cytotoxicity activity result under setting [2] is “moderate”. In the case of `CC=CC(=O)OCC1(C)C(O)CCC2(C)C1CCC1(C)C2CC=C2C3CC(C)(C)C(OC(=O)C=CC)C(OC(=O)C=CC)C3(CO)C(O)CC21C` (centres unmarked) [Compound I21], under setting [2], the Cytotoxicity activity entry is recorded as “moderate”. On the same count and under the same terms, in the case of `CC=CC(=O)OC1C(OC(=O)C=CC)C2(CO)C(OC(=O)C=CC)CC3(C)C(=CCC4C5(C)CCC(O)C(C)(CO)C5CCC43C)C2CC1(C)C` (centres unmarked) [Compound I22] it was “moderate”.

As for `CC=CC(=O)OC1C(OC(=O)C=CC)C2(CO)C(O)CC3(C)C(=CCC4C5(C)CCC(OC(=O)C=CC)C(C)(CO)C5CCC43C)C2CC1(C)C` (centres unmarked) [Compound I23], the Cytotoxicity activity result under setting [2] is given as “moderate”. The same measure, in the same setting: in the case of `CC=CC(=O)OC1C(OC(=O)C=CC)C2(CO)C(O)CC3(C)C(=CCC4C5(C)CCC(O)C(C)(CO)C5CCC43C)C2CC1(C)C` (centres unmarked) [Compound I24] it was “moderate”; in that of `CC=CC(=O)OCC12C(O)CC3(C)C(=CCC4C5(C)CCC(O)C(C)(CO)C5CCC43C)C1CC(C)(C)C(OC(=O)C=CC)C2O` (centres unmarked) [Compound I25], “moderate”. `CC=CC(=O)OCC12C(O)CC3(C)C(=CCC4C5(C)CCC(O)C(C)(CO)C5CCC43C)C1CC(C)(C)C(O)C2OC(=O)C=CC` (centres unmarked) [Compound I26]: the Cytotoxicity activity result under setting [2] is reported as “moderate”. For the compound `CC=CC(=O)OCC12C(O)CC3(C)C(=CCC4C5(C)CCC(OC(=O)C=CC)C(C)(CO)C5CCC43C)C1CC(C)(C)C(O)C2O` (centres unmarked) [Compound I27], the Cytotoxicity activity entry under setting [2] is “moderate”.

As for `CC=CC(=O)OCC12C(OC(=O)C=CC)CC3(C)C(=CCC4C5(C)CCC(O)C(C)(CO)C5CCC43C)C1CC(C)(C)C(O)C2O` (centres unmarked) [Compound I28], the Cytotoxicity activity entry under setting [2] is listed as “moderate”.
